The values that follow come from patent US20100022483A1, “Substituted Tetracycline Compounds” (Paratek Pharmaceuticals, Inc., priority 2008, published 2010).

In brackets after ≈: the same amount, converted by molar mass. Where two headings read alike, the source gives them in different places. Where only a bound is given, the exact number is not on record here.

Data set [1] can be described thus: Mammalian cytotoxicity assay (resazurin), COS-1 cells. The following applies: African green monkey, read-out: Cytotox. COS-1. Format: cell-based. Put shortly:
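Resazurin read-out (0.042 mg/ml, 2 h at 37° C. then 30 min dark, room temperature; fluorescence 535/590 nm) follows 24-hour compound exposure of overnight-seeded cells, serially diluted. IC50 is the concentration giving 50% growth inhibition.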
Background: Alamar Blue is a resazurin reagent that responds to reducing activity.

The test system of data set [2] is gram negative bacteria. In words: In vitro anti-bacterial activity assay (broth dilution MIC), gram negative bacteria. The format is cell-based, E. coli. Put shortly:
(§1)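 Broth dilution MIC following CLSI M7-A2: compounds serially diluted, log-phase test strains added to final ~5×10^5 CFU/ml, incubated ~18 hours at 35° C in ambient air. Plates read on microplate reader or visually; MIC is lowest concentration inhibiting growth.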
A general note: Dilution methods test growth across graded concentrations, often in twofold steps.

Data set [3] can be described thus: in vitro. Format: cell-based. The settings on record: Chinese hamster, Cytotox. CHO-K1.
For data set [4], the system named is gram positive bacteria. The data set can be described thus: In vitro anti-bacterial activity assay (broth dilution MIC), gram positive bacteria. The format is cell-based, S. aureus. The following applies: 18 h. Put shortly: as §1
For data set [5], the system named is 3T3 fibroblast cells. In words: In vitro phototoxicity assay (neutral red; UV light-treated vs dark control plates). The format is cell-based. The following applies: for Photo Toxicity UV Tox50: UV light 50 minutes; for Photo Toxicity Dark Tox50: dark control plate. Put shortly: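 Neutral red viability readout (A535 after EtOH/acetic acid extraction) compares paired plates: one exposed 50 min to UV at 1.6–1.8 mW/cm^2, one held in darkness, both dosed with compound in HBSS and recovered overnight. 3T3 fibroblast cells used; phototoxicity taken as the difference.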

Where [6] appears, read: Escherichia coli, 18 h, E. coli D1 209, read-out: Median MIC's G− E. coli D1 209.
Where [7] appears, read: Escherichia coli, 18 h, E. coli MG 1655, read-out: Median MIC's G− E. coli MG 1655.
Setting [8] is: Escherichia coli, ATCC25922, 18 h, E. coli ATCC 25922, read-out: Median MIC's G− E. coli ATCC 25922.
Setting [9] is: Pseudomonas aeruginosa, 18 h, P. aeruginosa K201 PAO6609, read-out: Median MIC's G− P. aeruginosa K201 PAO6609.
[10] abbreviates: Staphylococcus aureus, S. aureus MRSA5, read-out: Median MIC's G+ S. aureus MRSA5.
The mark [11] stands for this setting: Staphylococcus aureus, S. aureus RN450, read-out: Median MIC's G+ S. aureus RN450.
Where [12] appears, read: Streptococcus pneumoniae, S. pneumoniae 157E-Strep, read-out: Median MIC's G+ S. pneumoniae 157E-Strep.

What is called MIC is the lowest concentration found to suppress growth. `CN1CCN(C(=O)c2cccc(-c3ccc(O)c4c3C[C@H]3C[C@H]5[C@@H](N(C)C)C(O)=C(C(N)=O)C(=O)[C@@]5(O)C(O)=C3C4=O)c2)CC1` [D]: the IC50 at 24 h in data set [1] and in data set [3] was more than 131 µM each time. For the same molecule, the MIC is 64 µg/mL (≈ 104 µM) in data set [2] (setting [6]); 64 µg/mL (≈ 104 µM) in data set [2] (setting [7]); 64 µg/mL (≈ 104 µM) in data set [2] (setting [8]); 64 µg/mL (≈ 104 µM) in data set [2] (setting [9]); 64 µg/mL (≈ 104 µM) in data set [4] (setting [10]); 32 µg/mL (≈ 51.9 µM) in data set [4] (setting [11]). In addition, the MIC in data set [4] (setting [12]) amounted to 4 µg/mL (≈ 6.49 µM). For the same molecule, in data set [5], the “Photo Toxicity UV Tox50” value was more than 130.51 µM. For the same molecule, the “Photo Toxicity Dark Tox50” value in data set [5] is more than 130.51 µM.
As to `CN(C)CCNC(=O)c1ccc(O)c2c1C[C@H]1C[C@H]3[C@H](N(C)C)C(O)=C(C(N)=O)C(=O)[C@@]3(O)C(O)=C1C2=O` [AH], the IC50 at 24 h in data set [1] and in data set [3] was more than 126 µM each time. The MIC worked out at 64 µg/mL (≈ 121 µM) in data set [2] (setting [6]); 64 µg/mL (≈ 121 µM) in data set [2] (setting [7]); 64 µg/mL (≈ 121 µM) in data set [2] (setting [8]); 64 µg/mL (≈ 121 µM) in data set [2] (setting [9]); 64 µg/mL (≈ 121 µM) in data set [4] (setting [10]); 16 µg/mL (≈ 30.3 µM) in data set [4] (setting [11]). Also, the minimal inhibitory concentration (MIC) in data set [4] (setting [12]) is 8 µg/mL (≈ 15.1 µM). Moreover, the “Photo Toxicity UV Tox50” value in data set [5] was more than 125.56 µM. Further, in data set [5], the “Photo Toxicity Dark Tox50” value was more than 125.56 µM.
Regarding `CN(C)CCNC(=O)c1cccc(-c2ccc(O)c3c2C[C@H]2C[C@H]4[C@@H](N(C)C)C(O)=C(C(N)=O)C(=O)[C@@]4(O)C(O)=C2C3=O)c1` [A], the IC50 at 24 h in data set [1] and in data set [3] was more than 200 µM throughout. Moreover, the MIC in data set [2] (setting [6]) came to 64 µg/mL (≈ 106 µM); in data set [2] (setting [7]), 64 µg/mL (≈ 106 µM); in data set [2] (setting [8]) it was 64 µg/mL (≈ 106 µM); in data set [2] (setting [9]), 64 µg/mL (≈ 106 µM); in data set [4] (setting [10]), 64 µg/mL (≈ 106 µM); in data set [4] (setting [11]) it was 8 µg/mL (≈ 13.2 µM). The MIC in data set [4] (setting [12]) worked out at 4 µg/mL (≈ 6.62 µM). In data set [5], the “Photo Toxicity UV Tox50” value is given as “M: >200 uM”. The “Photo Toxicity Dark Tox50” value in data set [5] is “M: >200 uM”.
For the molecule `CN(C)[C@@H]1C(O)=C(C(N)=O)C(=O)[C@@]2(O)C(O)=C3C(=O)c4c(O)ccc(C(=O)CNc5cccnc5)c4C[C@H]3C[C@@H]12` [CB], the IC50 at 24 h in data set [1] was more than 153 µM; in data set [3], 110 µM. The MIC in data set [2] (setting [6]) stood at 64 µg/mL (≈ 117 µM); in data set [2] (setting [7]) it was 64 µg/mL (≈ 117 µM); in data set [2] (setting [8]), 64 µg/mL (≈ 117 µM); in data set [2] (setting [9]), 64 µg/mL (≈ 117 µM); in data set [4] (setting [10]), 64 µg/mL (≈ 117 µM); in data set [4] (setting [11]), 16 µg/mL (≈ 29.2 µM). For the same molecule, the MIC in data set [4] (setting [12]) is 32 µg/mL (≈ 58.3 µM). For the same molecule, in data set [5], the “Photo Toxicity UV Tox50” value is more than 152.86 µM. In addition, the “Photo Toxicity Dark Tox50” value in data set [5] is more than 152.86 µM.
Take `CN(C)CCCCNC(=O)c1cccc(-c2ccc(O)c3c2C[C@H]2C[C@H]4[C@H](N(C)C)C(O)=C(C(N)=O)C(=O)[C@@]4(O)C(O)=C2C3=O)c1` [CL]: the IC50 at 24 h in data set [1] and in data set [3] was more than 41.7 µM each time. The minimal inhibitory concentration (MIC) in data set [2] (setting [6]) is 64 µg/mL (≈ 101 µM); in data set [2] (setting [7]), 64 µg/mL (≈ 101 µM); in data set [2] (setting [8]), 64 µg/mL (≈ 101 µM); in data set [2] (setting [9]), 64 µg/mL (≈ 101 µM); in data set [4] (setting [10]) it was 64 µg/mL (≈ 101 µM); in data set [4] (setting [11]), 4 µg/mL (≈ 6.32 µM). In data set [4] (setting [12]), the MIC is 4 µg/mL (≈ 6.32 µM). The “Photo Toxicity UV Tox50” value in data set [5] is more than 134.63 µM. For the same molecule, the “Photo Toxicity Dark Tox50” value in data set [5] is more than 134.63 µM.
As to `CN(C)[C@@H]1C(O)=C(C(N)=O)C(=O)[C@@]2(O)C(O)=C3C(=O)c4c(O)ccc(-c5cccc(CCCO)c5)c4C[C@H]3C[C@@H]12` [CM], the IC50 at 24 h in data set [1] was found to be 15.1 µM; in data set [3] it was 14.1 µM. Moreover, the MIC was determined as 64 µg/mL (≈ 117 µM) in data set [2] (setting [6]); 64 µg/mL (≈ 117 µM) in data set [2] (setting [7]); 64 µg/mL (≈ 117 µM) in data set [2] (setting [8]); 64 µg/mL (≈ 117 µM) in data set [2] (setting [9]); 0.5 µg/mL (≈ 0.911 µM) in data set [4] (setting [10]); 0.0625 µg/mL (≈ 0.114 µM) in data set [4] (setting [11]). For the same molecule, the MIC in data set [4] (setting [12]) is 0.06 µg/mL (≈ 0.109 µM). Moreover, the “Photo Toxicity UV Tox50” value in data set [5] was more than 167.5 µM. Moreover, the “Photo Toxicity Dark Tox50” value in data set [5] is more than 167.5 µM.
